Tested on: Huh7 psiCHECK-miR122 Renilla luciferase reporter, 48 h
Experiment: suppression of miR-122 activity, Renilla luciferase sensor – cell-based, Huh7 psiCHECK-miR122, cherry-pick, dose response (AID 652053)

Structure (SMILES) | AC40
Cc1ccc(S(=O)(=O)Nc2ccc(-n3cnnn3)cc2)c(C)c1 | 0.759 µM
CCOC(=O)c1c(C)[nH]c(C)c1S(=O)(=O)NCCc1ccco1 | 2.96 µM
COc1cccc(CC(=O)Nc2ccc(N3CCOCC3)c(S(=O)(=O)Nc3ccccc3OC)c2)c1 | 1.48 µM
Cc1ccc(S(=O)(=O)NCc2ccco2)c(C)c1C | 1.79 µM
CCC(=O)N1N=C(c2ccc(NS(=O)(=O)c3ccc(C)cc3)cc2)CC1c1ccco1 (configuration not stated) | 4.52 µM
CSc1ccc(S(=O)(=O)NC2CCCCC2)cc1 | 2.87 µM
Cc1ccc(NS(=O)(=O)c2cc(C(=O)N3CCN(C)CC3)ccc2C)cc1C | 25.1 µM
CC(C)c1ccc(NC(=O)Cc2cn(C)c3ccccc23)cc1 | 11.9 µM
Cc1cccc(NS(=O)(=O)c2cccc(C(=O)N3CCCCCCC3)c2)c1 | 1.8 µM
CCCCOCCCNC(=S)Nc1ccc(S(=O)(=O)N2CCOCC2)cc1 | 11 µM
C[C@H](CO)N1C[C@H](C)[C@H](CN(C)Cc2ccc(C(=O)Nc3ccccc3N)cc2)Oc2ccc(NS(=O)(=O)c3ccc(F)cc3)cc2CC1=O | 7.93 µM
C[C@@H]1CN([C@H](C)CO)C(=O)Cc2cc(NC(=O)Nc3ccc(C(F)(F)F)cc3)ccc2O[C@@H]1CN(C)C(=O)Nc1cccc2ccccc12 | < 0.26 µM
Cc1c(C(=O)OC2CCCC2)[nH]c2c1C(=O)CC(c1ccco1)C2 (configuration not stated) | 5.77 µM
Cc1ccc(S(=O)(=O)Nc2cccc(-c3cn4ccsc4n3)c2)cc1 | 1.81 µM
Cc1cc(C)cc(NS(=O)(=O)c2ccc3oc(=O)ccc3c2)c1 | 3.43 µM
Cc1ccc(S(=O)(=O)NCCC2=CCCCC2)cc1 | 5.27 µM
C=CCNc1cc(F)ccc1S(=O)(=O)NCC=C | 1.03 µM
O=C(N/N=C/c1ccc(Cl)s1)C(O)c1ccccc1 (configuration not stated) | 1.17 µM
Cc1cc(Br)ccc1NC(=S)NCCc1ccccc1 | 9.65 µM
NC(=O)Cn1cc(/C=N\NS(=O)(=O)c2ccc(F)cc2)c2ccccc21 | 3.22 µM
CCCCn1c(NC(=O)c2ccc(Br)o2)c(S(=O)(=O)c2ccccc2)c2nc3ccccc3nc21 | 25.7 µM
O=C(NCc1ccncc1)c1cccc(S(=O)(=O)Nc2ccc(F)cc2)c1 | 3.23 µM
OCC1OC(n2cnc3c(NCc4ccccc4O)ncnc32)C(O)C1O (configuration not stated) | 3.86 µM
COc1ccc(NS(=O)(=O)c2ccc(N3CCOCC3)c(NC(=O)c3cccc(F)c3)c2)cc1 | 8.96 µM
COC(=O)c1c(C)oc(C)c1S(=O)(=O)NCC1CC1 | 3.29 µM
Cc1cc(S(=O)(=O)Nc2ccc3cn[nH]c3c2)c(C)cc1Cl | 2.11 µM

Structure (SMILES) | AC40
C[C@@H]1CN([C@H](C)CO)C(=O)c2cc(NC(=O)Cc3ccccc3)ccc2O[C@@H]1CN(C)S(=O)(=O)c1ccc(Cl)cc1 | 1.31 µM
COc1ccc(OC)c(C(c2nnnn2C2CCCC2)N2CCN(c3ccccc3F)CC2)c1 (configuration not stated) | 12.3 µM
Cc1ccc(C)c(S(=O)(=O)NC(C)CCc2ccccc2)c1 (configuration not stated) | 3.81 µM
O=S1(=O)N=CN(Cc2cccc(F)c2)c2ccccc21 | 3.02 µM
Cc1cc(C)c(C)c(S(=O)(=O)Nc2ccc3cn[nH]c3c2)c1C | 0.694 µM
CC(C)CCC(CC(C)O)C(=O)NNC(=S)Nc1ccccc1 (configuration not stated) | 9.74 µM
Cc1cc(C)cc(NS(=O)(=O)c2ccc3c(c2)C(C)(C)C(=O)N3C)c1 | 1.21 µM
COc1ccc(S(=O)(=O)Nc2cc(Cl)ccc2OC)cc1 | 2.68 µM
COc1ccc(C)cc1S(=O)(=O)NC1CCCCCC1 | 2.03 µM
O=S(=O)(NC1CCCCC1)c1cccc(-c2nnc(-c3ccccc3)o2)c1 | 2.16 µM
Cc1ccccc1NS(=O)(=O)c1cc(C(=O)N2CCc3ccccc3C2)ccc1C | 20.4 µM
COc1ccc(OC)c(S(=O)(=O)N/N=C\c2ccc3c(c2)OCO3)c1 | 0.508 µM
CSc1cccc(NS(=O)(=O)c2cc(Br)cnc2N)c1 | 2.5 µM
C[C@H](CO)N1C[C@H](C)[C@H](CN(C)Cc2ccc(Cl)c(Cl)c2)Oc2c(NC(=O)Nc3ccc4c(c3)OCO4)cccc2C1=O | 4.58 µM
COc1ccc(OC)c(NS(=O)(=O)c2ccc(N3CCCC3=O)cc2)c1 | 14.8 µM
Cc1ccc([N+](=O)[O-])cc1N(CC(=O)Nc1ccc(S(=O)(=O)Nc2cccc(C(F)(F)F)c2)cc1)S(C)(=O)=O | 14 µM
Cc1cccc(NS(=O)(=O)c2ccc3c(c2)OCCO3)c1 | 1.57 µM
COc1cccc(NS(=O)(=O)c2ccc3c(c2)N(C(C)=O)CCO3)c1 | 3.67 µM
CCN(CC)S(=O)(=O)c1ccc(C)c(NCC(=O)Nc2ccc(C#N)c(Cl)c2)c1 | 1.77 µM
O=C(NCc1ccccn1)c1cccc(NS(=O)(=O)c2cccc(F)c2)c1 | 5.83 µM
Cc1ccc(-c2nnc(Nc3ccccc3)c3ccccc23)cc1S(=O)(=O)NCC1CCCO1 (configuration not stated) | 0.63 µM
CC(=O)N1c2c(cc(Br)cc2S(=O)(=O)NCc2ccccc2)CC1C (configuration not stated) | 5.96 µM
Cc1ccc(C(=O)NCCSc2ccccc2)cc1S(=O)(=O)Nc1ccccc1 | 4.09 µM
CCOc1ccccc1N1CCN(C(=O)c2cc3ccccc3cc2OC)CC1 | 4.78 µM
O=S(=O)(Nc1cccc(-n2cnnn2)c1)c1cc(Br)ccc1Br | 4.94 µM
CC(C)NC(=O)Nc1ccc2c(c1)CC(=O)N([C@H](C)CO)C[C@H](C)[C@H](CN(C)Cc1ccc(C(=O)Nc3ccccc3N)cc1)O2 | 14.2 µM

Structure (SMILES) | AC40
COc1ccccc1NS(=O)(=O)c1cc(NC(=S)NCCN2CCOCC2)ccc1N1CCOCC1 | 1.71 µM
COc1ccc(C(=O)N2C[C@H]3[C@@H](c4ccccc42)[C@@H](CO)N3C(=O)c2ccc(F)cc2)cc1 | 0.631 µM
Cc1ccccc1CC1(C)C(=O)Nc2ccc(S(=O)(=O)NC3CCCCC3)cc21 (configuration not stated) | 2.69 µM
COc1ccc(C)cc1NS(=O)(=O)c1ccc2c(c1)N(C)CCO2 | 1.54 µM
C[C@H](CO)N1C[C@H](C)[C@@H](CN(C)C(=O)Nc2ccc(F)cc2)Oc2c(NS(=O)(=O)c3ccccc3)cccc2C1=O | 20.4 µM
C[C@@H]1CN([C@H](C)CO)C(=O)c2cccc(NC(=O)NC3CCCCC3)c2O[C@H]1CN(C)Cc1ccc(Cl)c(Cl)c1 | 0.891 µM
COCC#Cc1ccc2c(c1)O[C@H](CN(C)S(=O)(=O)c1ccc(OC)cc1)[C@H](C)CN([C@H](C)CO)S2(=O)=O | 5.8 µM
COc1ccc(F)cc1S(=O)(=O)NC1CCCCCC1 | 5.11 µM
CC(=O)N1CCc2cc(S(=O)(=O)Nc3cccc(C(F)(F)F)c3)ccc21 | 2.92 µM
CN(Cc1ccccc1)S(=O)(=O)c1ccc(NC(=S)NC(=O)C2CCCC2)cc1 | 9.75 µM
Cc1ccc(C2CN(C)C3(C(=O)Nc4ccccc43)C23COc2ccccc2C3=O)cc1 (configuration not stated) | 1.08 µM
CCCC(=O)NC(=S)Nc1ccc(S(=O)(=O)Nc2ccc(OCC)cc2)cc1 | 1.42 µM
C[C@H](CO)N1C[C@H](C)[C@H](CN(C)Cc2ccc(C(=O)Nc3ccccc3N)cc2)Oc2ccc(NC(=O)Nc3ccc4c(c3)OCO4)cc2CC1=O | 8.06 µM
COc1ccc(C(=O)Nc2cccc(S(=O)(=O)NCc3ccco3)c2)cc1 | 0.822 µM
CCOC(=O)/C(=N/Nc1ccc(Cl)cc1)S(=O)(=O)c1ccccc1 | 3.28 µM
O=C(Nc1sc2c(c1C(=O)O)CCC2)c1ccco1 | 15.1 µM
O=S(=O)(NCC1CCCO1)c1cccc(C(F)(F)F)c1 (configuration not stated) | 22.2 µM
COc1ccc(Cl)cc1NS(=O)(=O)c1cc(Cl)ccc1OC | 4.45 µM
CN1C(=O)c2cc(NC(=O)Cc3ccccc3)ccc2OC[C@@H]2O[C@H](CC(=O)NCc3ccc(Cl)cc3)CC[C@@H]21 | < 0.26 µM
COc1ccc(NC(=O)c2cc(C)nc3ccccc23)cc1S(=O)(=O)Nc1ccccc1Cl | 2.33 µM
COc1cccc(C(=O)N2C[C@H]3[C@@H](c4ccccc42)[C@H](CO)N3C(=O)c2ccc(F)cc2)c1 | 33.6 µM
Cc1ccc(S(=O)(=O)Nc2ccc3c(c2)CCC3)cc1 | 6.54 µM
COc1ccc(S(=O)(=O)NCCSC(C)(C)C)c(Cl)c1Cl | 8.16 µM
COc1ccc(-c2cc(C)no2)cc1S(=O)(=O)NCC(C)c1ccccc1 (configuration not stated) | 2.74 µM
CCC(=O)Nc1ccc(S(=O)(=O)NCCc2ccccc2)cc1 | 10.7 µM
CC(=O)c1ccc(NS(=O)(=O)c2c(C)cc(C)cc2C)cc1 | 1.82 µM

Structure (SMILES) | AC40
CCCCNS(=O)(=O)c1ccc2nc(-c3cccnc3)cc(C(=O)NCCOC)c2c1 | 1.18 µM
CSc1nc(-c2ccc(C)cc2)[nH]c1S(=O)(=O)c1ccccc1 | 15.9 µM
C[C@@H]1CN([C@H](C)CO)C(=O)c2cc(N(C)C)ccc2O[C@@H]1CN(C)S(=O)(=O)c1ccc(Cl)cc1 | 6.57 µM
COC(=O)c1ccc(Nc2nnc(-c3ccc(C)c(S(=O)(=O)NCC4CCCO4)c3)c3ccccc23)cc1 (configuration not stated) | 0.761 µM
COc1ccccc1-c1nnc2sc(-c3ccc(N(C)C)cc3)nn12 | 7.44 µM
Cc1cc(C)cc(C(O)c2ncc(-c3ccccc3F)[nH]2)c1 (configuration not stated) | 2.5 µM
COc1ccc(NS(=O)(=O)c2cc(NC(=O)c3ccc(=O)[nH]n3)ccc2C)cc1 | 5.01 µM
Cc1ccc(C2=NN3C(C(=O)c4ccccc4)Oc4ccccc4C3C2)cc1 (configuration not stated) | 4.05 µM
COc1ccc(Br)cc1CNC(=O)Nc1cccs1 | 15.5 µM
O=S(=O)(NC1CCCCC1)c1ccc(-c2csnn2)s1 | 3.8 µM
C[C@H]1CN([C@@H](C)CO)C(=O)Cc2cc(NC(=O)Nc3ccc(C(F)(F)F)cc3)ccc2O[C@H]1CN(C)S(=O)(=O)c1ccc(F)cc1 | 14 µM
O=C(NNS(=O)(=O)c1ccc(Cl)cc1)c1cccc(S(=O)(=O)N2CCOCC2)c1 | 5.2 µM
CCOc1ccc(Br)cc1S(=O)(=O)Nc1cccc(S(=O)(=O)N(CC)CC)c1 | 7.75 µM
CC(=O)N1CCSc2ccc(S(=O)(=O)NCCc3ccc(Cl)cc3)cc21 | 4.57 µM
Cc1ccc(NS(=O)(=O)c2cc(Br)cnc2N)cc1C | 2.36 µM
COC(=O)c1ccc(C)c(NS(=O)(=O)c2ccc(OC)c(OC)c2)c1 | 21.5 µM
Fc1cccc(Cn2cc(C(=S)N3CCOCC3)c3ccccc32)c1 | 21 µM
O=C(c1ccccc1)C(O)(Cc1ccccc1)c1ccccc1 (configuration not stated) | 8.14 µM
OC(c1ccc(Cl)c(Cl)c1)c1ncc(-c2ccccc2F)[nH]1 (configuration not stated) | 3.49 µM
COc1ccccc1N(CC(=O)N1CCCCC1C)S(=O)(=O)c1ccc(Cl)cc1 (configuration not stated) | 2.31 µM
OC(c1ccc(Cl)c(F)c1)c1ncc(-c2cccc(F)c2)[nH]1 (configuration not stated) | 9.13 µM
C[C@H](CO)N1C[C@H](C)[C@@H](CN(C)Cc2ccc3c(c2)OCO3)Oc2c(NC(=O)C3CCOCC3)cccc2C1=O | 9.34 µM
COc1cc(NS(=O)(=O)c2csc(C(N)=O)c2)cc(OC)c1 | 1.51 µM
O=C(C[C@@H]1C[C@H]2c3cc(NS(=O)(=O)c4ccc(F)cc4)ccc3O[C@H]2[C@H](CO)O1)NCc1ccc(-c2ccccc2)cc1 | 5.24 µM
